We go through five compounds from patent publication USRE38200E1, “Indole-2,3-dione-3-oxime derivatives” (NeuroSearch A/S, priority 1996, dated 2003).

The target in one series is AMPA receptor. The experiment in a line: 3H-AMPA binding (in vitro receptor affinity test). On the set-up: species or system rat. Particulars: cerebral cortex membranes from male Wistar rats; 3H-AMPA 5 nM; 30 minutes at 2° C.; read-out: IC50 (concentration of the test substance which inhibits the specific binding of 3H-AMPA by 50%). An excerpt:
In an in vitro activity (receptor affinity) test, the chemical compounds of the present invention have been tested for their affinity for the AMPA receptor.
L-glutamate (GLU) is the major excitatory neurotransmitter in the mammalian central nervous system. From electro-physiological- and binding studies, there appear to be at least three subtypes of GLU receptors, tentatively named N-methyl-D-aspartate (NMDA) receptors, quisqualate receptors and kainate receptors. AMPA has been known for several years to be a potent and selective agonist at the traditionally named quisqualate receptors. Activation of quisqualate receptors by AMPA is associated with Na^+influx and K^+efflux leading to depolarisation. ^3H-AMPA is a selective radioligand for labelling the ionotropic quisqualate (AMPA) receptors.
Preparations are performed at 0-4° C. unless otherwise indicated. Cerebral cortex from male Wistar rats (150-200 g) is homogenised for 5-10 sec in 20 ml Tris-HCl (30 mM, pH 7.4) using an Ultra-Turrax™ homogeniser. The suspension is centrifuged at 27,000×g for 15 minutes and the pellet is washed three times with buffer (centrifuged at 27,000×g for 10 minutes). The washed pellet is homogenised in 20 ml of buffer and incubated on a water bath (of 37° C.) for 30 minutes to remove endogenous glutamate and then centrifuged for 10 minutes at 27,000×g. The pellet is then homogenised in buffer and centrifuged at for 10 minutes at 27,000×g. The final pellet is resuspended in 30 ml buffer and the preparation is frozen and stored at −20° C.
The membrane preparation is thawed and centrifuged at 2° C. for 10 minutes at 27,000×g. […] Non-specific binding is determined using L-glutamate (0.6 mM, final concentration).
After incubation the 550 μl samples are added 5 ml of ice-cold buffer and poured directly onto Whatman™ GF/C glass fibre filters under suction and immediately washed with 5 ml of ice-cold buffer. […] The amount of radioactivity on the filters is determined by conventional liquid scintillation counting. […]

Counter-ions that a name gives are not always drawn.

What is called melting point is the temperature of the solid-liquid transition. Regarding `CN1CCc2c(-c3ccc(S(=O)(=O)N(C)C)cc3)cc3c(c2C1)NC(=O)C3=NOC1CCOC1=O` (centres unmarked) (as salt: hydrochloride) [8-methyl-5-(4-(N,N-dimethylsulfamoyl)phenyl)-6-7-8-9-tetrahydro-1H-pyrrolo[3,2-h]-isoquinoline-2,3-dione-3-O-(3-(2-oxo)tetrahydrofuryl) oxime, hydrochloride], the melting point is 245 °C (dec.).

Turning to `CN1CCc2c(-c3ccc(S(=O)(=O)N(C)C)cc3)cc3c(c2C1)NC(=O)C3=NOC(CCO)C(=O)O` (centres unmarked) (as salt: sodium) [8-methyl-5-(4-(N,N-dimethylsulfamoyl)phenyl)-6-7-8-9-tetrahydro-1H-pyrrolo[3,2-h]-isoquinoline-2,3-dione-3-O-(4-hydroxybutyric acid-2-yl)oxime sodium salt], the melting point is > 200 °C (dec.). On to `CN1CCc2c(-c3ccc(S(=O)(=O)N(C)C)cc3)cc3c(c2C1)NC(=O)C3=NOC1CCOC1=O` (centres unmarked) [8-methyl-5-(4-(N,N-dimethylsulfamoyl)phenyl)-6-7-8-9-tetrahydro-1H-pyrrolo[3,2-h]-isoquinoline-2,3-dione-3-O-(3-(2-oxo)tetrahydrofuryl) oxime, hydrochloride], for which, at AMPA receptor, the IC50 is 150 nM. Turning to `CN1CCc2c(-c3ccc(S(=O)(=O)N(C)C)cc3)cc3c(c2C1)NC(=O)C3=NOC(CCO)C(=O)O` (centres unmarked) [8-methyl-5-(4-(N,N-dimethylsulfamoyl)phenyl)-6-7-8-9-tetrahydro-1H-pyrrolo[3,2-h]-isoquinoline-2,3-dione-3-O-(4-hydroxybutyric acid-2-yl)oxime sodium salt], on AMPA receptor, the IC50 was found to be 50 nM. For `CCOC(=O)CO/N=C1\C(=O)Nc2c1cc(-c1ccc(S(=O)(=O)N(C)C)cc1)c1c2CN(C)CC1` [8-methyl-5-(4-(N,N-dimethylsulfamoyl)phenyl-6,7,8,9-tetrahydro-1H-pyrrolo [3,2-h]isoquinoline-2,3-dione-3-O-(ethoxycarbonylmethyl) oxime], on AMPA receptor, the IC50 amounted to 100 nM.
